{"source": "patent US20070025995A1", "about": "“Taxoid derivative covalently linked to tumor-specific antibody and a method for preparing the same” (priority 2005, published 2007)", "system": "tubulin", "assay": "Tubulin polymerization activity (HTS-Tubulin Polymerization Assay Kit, OD340)", "assay_type": "biochemical", "details": "absorbance at 340 nm over reaction time; FIG. 1; paclitaxel control 3.7 mg/mL aqueous solution", "description": "The anticancer agent of the present invention has the structure of paclitaxel or docetaxel, and thus it was conjectured that the compound manifests its anticancer effects by inducing overproduction of tubulin in the same manner as paclitaxel or docetaxel. However, this compound blocks tubulin polymerization in the same manner as vinblastine. The tubulin polymerization activity assay was, as shown in Test Example 1, determined by measuring the absorbance at 340 nm and measuring tubulin polymerization activity.\nTubulin polymerization activity was measured using the HTS-Tubulin Polymerization Assay Kit (manufactured by Cytoskeleton) with respect to both the reaction solution of the present invention obtained in Example 1 and 3.7 mg/mL aqueous solution of paclitaxel used as a control.\nThe horizontal axis in the figure denotes reaction time (min) and the vertical axis represents tubulin polymerization activity (OD340).", "data": [{"compound": "CC(=O)O[C@H]1C(=O)[C@@]2(C)[C@H]([C@H](OC(=O)c3ccccc3)[C@]3(O)C[C@H](OC(=O)[C@H](O)[C@@H](NC(=O)c4ccccc4)c4ccccc4)C(C)=C1C3(C)C)[C@]1(OC(C)=O)CO[C@@H]1C[C@@H]2O", "note": "[paclitaxel, Paclitaxel]", "values": [{"measurement": "tubulin polymerization activity (OD340)", "result": "tubulin polymerization was stimulated"}]}]}
